Legend:
[1] = Metabolic analysis of O4I2 incubated with NCCIT cells (HPLC, LC/MS); type: in vitro ADME, human; settings: 24 hours, O4I2 50 μM
Description: (§1) The inventors adopted Hantzsch thiazole synthesis (FIG. 20A) and produced a series of new O4I2-ester derivatives (FIG. 20B). Their activities were measured in three luciferase report cell lines, namely HEK-OCT4, driven by the activation of OCT4-promoter, and NCCIT-OCT4 and NCCIT-NANOG, whose intensities are controlled by endogenous OCT4 and NANOG respectively. […] Carboxylesterase 1 (CES1) is an enzyme majorly contributing to ester-to-acid conversion.
NCCIT cells were treated with O4I2 (50 μM) in RPMI 1640 medium containing 2% BSA/FBS. Medium and cells were collected. Cell pellet was solved in 0.1% Triton-x. Protein precipitated by adding MeOH (pH=2) in lysate supernatant on ice for 2 h. Metabolites were extracted from the combined supernatant with ethyl acetate. After removal of organic solvent, residue was dissolved in acetonitrile, frozen immediately in liquid N2 and stored in −80° C. until further analysis.
Samples obtained after purification were diluted to contain 20% MeOH. 100 μL of the sample was transferred to an HPLC vial and placed in the autosampler of an Agilent 1200 series HPLC machine. Sample (20 μL) was injected into the system and metabolites were separated on a C18 column (Kinetex 2.6 μm, C18, 100 Å, dimensions 100×2.1 mm, Phenomenex, Aschaffenburg, Germany). […]

OCT4-promoter = assay: Luciferase reporter assay in HEK-OCT4 cells; type: cell-based; settings: HEK-OCT4, NCCIT-OCT4 and NCCIT-NANOG
Description: In an effort to find such chemical structures able to induce pluripotency, a high-throughput screening (HTS) was performed. The screen was based on cellular luciferase reporter assays under the control of the promoter activity of a pluripotency-associated transcription factor (Oct4) in HEK293 cells.
as §1

[2] = Expression of pluripotency genes in unmodified NCCIT cells; type: cell-based, human
Excerpt: Consistently, in unmodified NCCIT cells O4I4 forced the expression of OCT4 (3-fold increase as compared to 0.1% DMSO treatment) and NANOG (30-fold increase) as well as other pluripotency-related genes, like E-CADHERIN, SOX2, REX1 and STAT3, 0414-mediated enrichment of OCT4 and NANOG, as well as SOX2 and E-CADHERIN, was also detected by fluorescence-activated cell sorting. […] It was reported that removal of bFGF led to the loss of pluripotency-marker expression in hPSCs, including OCT4, SOX2, E-CADHERIN and NANOG, which however was rescued in the presence of O4I4 (FIG. 21A), indicating a positive function of O4I4 in maintaining the pluripotency-associated transcriptional circuitry in hPSC.
Quantitative reverse-transcription real-time-PCR was performed using a Light Cycler 96 (Roche, Germany) following the manufacturer's protocol. Briefly, total RNA was isolated from cells using TRIzol (Qiagen, Germany) or NucleoSpin®RNA Plus (Macherey-Nagel, Germany). The same amount of RNA was used to reverse-transcriptional synthesize cDNA by using random primers ProtoScript® First Strand cDNA Synthesis Kit (NEB, Germany). qPCR was performed using the SYBR Green PCR master mix (qPCRBIO SyGreen Mix Lo-Rox, Nippon Genetics, Germany) and the primer pairs indicated below (MWG, Eurofins, Germany). Actin was used as an endogenous control. […]

C. elegans [3] = assay: C. elegans survival assay under oxidative stress (juglone); type: in vivo
Description: Eggs were released by lysing gravid adults with bleaching for 10 min. Resuspended eggs in sterile M9 buffer and incubated at 20° C. for 16-18 h. After all the worms were synchronized at the same L1 larval stage, transferred them into the liquid S-media which contents E. coli OP50 (0D600=0.8-1.2). Then, synchronized worms were treated with DMSO, 50 μg/ml epigallocatechin gallate (EGCG) or O4I4 (5 μM, 10 μM, and 20 μM) for further experiments.
After 48 h treatment, around 60 wild-type C. elegans (N2) worms in each sample were transferred into a new liquid S-media which contains 80 μM of superoxide-generating compound juglone (5-hydroxy-1,4-naphthalenedione) for 24 h. If a worm has response via a gentle touch with platinum wire, it is considered as a live worm. Conversely, a dead worm was considered by no response. The function of the survival rate is shown below.

C. elegans [4] = assay: C. elegans lifespan assay; type: in vivo; settings: 0.5 μM
Description: O4I4 (0.5 μM) were continuously added in medium until all the worms die. During the experiment period, every two days or three days, worms were counted either live or die by responding to a gentle touch with a platinum wire.

daf-16 = assay: Daf-16 localization assay in C. elegans TJ356; type: in vivo
Description: In this experiment, transgenic worms TJ356 (Daf-16::GFP) are employed to study our target substance affects the localization of daf-1 6. After 24 h treatment, worms were transferred to a glass slide and paralyzed with 10 mM sodium azide. BZ9000 fluorescence microscope was used to observe the localization of daf-1 6. In each sample, around 50 worms were scored for three localization patterns: cytoplasmic, intermediate and nuclear.

Oct4 [5] = assay: Immunoblotting of OCT4 protein in human primary fibroblasts; type: cell-based
Description: In human primary fibroblasts, O4I4 promoted the expression of pluripotency-associated genes, including OCT4, SOX2, NANOG, LIN28, E-CADHERIN, REX1 and SALL4. […] FACS analysis further confirmed the O4I4-mediated induction of OCT4 and E-CADHERIN.
iPSCs were lysed using urea-lysis buffer (1 mM EDTA, 0.5% Triton X-100, 5 mM NaF, 6 M Urea, 1 mM Na3VO4, 10 μg/mL Pepstatin, 100 μM PMSF and 3 μg/mL Aprotinin in PBS). Enhanced chemiluminescence (ECL) immunoblot analysis was performed. 40 μg of total protein was resolved on 12% SDS-PAGE gels and immunoblotted with antibodies. […] antibody was used as loading control. Primary antibodies were incubated at 1:1000 dilution in TBS (pH 7.5) with 0.1% Tween-20 and 5% BSA/milk with gentle agitation overnight at 4° C. Secondary antibodies (Dianova, Germany) were incubated in TBS (pH 7.5) with 5% Milk and 0.1% Tween-20 at a 1:10,000 dilution for 1 h at room temperature.

Nanog = assay: Luciferase reporter assay in NCCIT-Nanog cells; type: cell-based, human; settings: 10 μM, 48 h
Description: It is known in the art that Nanog is a direct target of Oct4 and can be activated by other Oct4 inducing compounds. […] At higher concentrations of O4I3 (FIGS. 1B and 1C) less activity was observed. Moreover, the activity of zolpidem (N,N-Dimethyl-2-(6-methyl-2-p-tolylimidazo[1,2-a]pyridin-3-yl)acetamid) (100) containing a similar backbone to O4I3 was tested in both reporter cell lines. An approximate 2-fold induction at 10 μM was detected (FIG. 8 and FIG. 9).
Luciferase reporter assay was performed using Beatle Juice Kit (PJK, Germany) according to the manufacturer's instruction. NCCIT-Oct and NCCIT-Nanog reporter cells were plated into a 24-well plate (100,000 cells/well) for 24 h. Cells were treated with compounds as indicated and harvested with luciferase lysis buffer (25 mM Tris phosphate buffer pH=7.8, 4 mM EGTA, 1% Triton X-100, 10% glycerol and 2 mM fresh DTT, filtered through 0.45 μm sterile filter) at 37° C. for 15 min. The protein concentration was determined by Bradford assay (Sigma, Germany). 100 μL reaction mixture containing luciferin and ATP was added to 20 μL cell lysis in a white plate (Gibco, Germany), incubated for 5 min and measured by a luminometer plate-reader. The activity was determined as percent luminous intensity of treated cells over control cells from at least five-independent experiments.

hiPSCs = assay: iPSC single cell expansion, viability by MTT assay; type: cell-based, human; settings: much higher concentration and lower efficacy than O4I3
Description: Since O4I3 induced sustainable expression of Oct4 and Nanog, the inventors questioned if it supports iPSC self-renewal in single cell expansion. Therefore, the viability of iPSCs, after replating Accutase®-dissociated single iPSCs, was tested in the presence or absence of O4I3. Rocki (Y-27632) was used for the first 24 h to increase iPSCs survival. A nearly 300% higher viability in cells treated with O4I3 (1 nM) was observed. Using 50 nM of O4I3 even 400% increase was observed (FIG. 2A). FACS analysis confirmed homologous expression of iPSCs markers, Tra-1-81 and Oct4, for at least 30 passages (FIG. 2B).
iPSC single cell expansion was performed according to a well-established protocol known in the art (Watanabe et al, Nat Biotechnol, 2007, 25(6), 681-6). Briefly, iPSCs were dissociated with Accutase® as single cell suspension and re-seeded in a Geltrex-coated 96-well plate in the presence of Rock inhibitor for the first 24 h in combination with/without O4I3. Cell viability was performed in MTT assay as disclosed elsewhere (Cheng et al, Mol Oncol. 2016 June; 10(6):806-24).

human fibroblasts = assay: Episome-based reprogramming of human fibroblasts, AP+ / iPSC-like colonies; type: cell-based; settings: 1 μM, lower efficiency
Description: O4I3 was applied in commercially available episome-based reprogramming cocktail containing episomal vectors for overexpression of Oct4, Sox2, Klf4, Lin28 and L-Myc, as well as suppression of p53. In comparison to non-treated fibroblast cultures, 20 times more alkaline phosphatase (AP) positive colonies were detected in the presence of O4I3 at a concentration of 50 nM in two tested human primary fibroblasts (HF1 and HF2) (FIG. 13).
It is known in the art that senescence or other unknown factors can confer donor fibroblasts resistance to reprogramming. Therefore, O4I3 was tested for its ability to enable reprogramming of refractory fibroblasts. Two human fibroblasts were selected. HFF-LTR7-EGFP at passage >40 carrying EGFP driven by a LTR7 promoter, which was activated during reprogramming, and HF5, isolated from a patient sample, both of which were resistant to an episome-based reprogramming approach (FIG. 13).
Epi5® Episomal iPSC Reprogramming Kit (Life technologies) was used to reprogram human fibroblasts according to the manufacturer's protocol. Briefly, 5,000-50,000 cells were seeded in a 24-well plate for 24 h and then transfected with episomal vectors in N2 B27 medium. After 14 days, cells were re-suspended with 0.5 mM EDTA and re-plated in a 6-well plate in Essential®8 medium. Colonies were isolated after 3-4 weeks with the help of alkaline phosphatase (AP) live stain (Life technologies). Medium was refreshed daily.

methylated H3K4 = assay: In vitro H3K4 methylation assay (Epiquik histone demethylase H3K4 specific kit); type: biochemical; settings: micromolar concentrations
Description: (§2) Epiquik histone demethylase (H3K4 specific) activity/inhibition assay kit (Epigentek, Biocat, Germany) was used to measure the protective effect of O4I3 and zolpidem on the methylation of H3K4. Their inhibitory effects on LSD1, KDM5s, and KDM4 were determined using Epigenase jarid demethylase activity/inhibition assay kit, Epigenase JMJD2 demethylase activity/inhibition assay kit and EpiQuik histone demethylase LSD1 activity/inhibition assay kit (Epigentek, Biocat, Germany). The total nuclear extraction was used according to manufacturer's instructions. For measuring KDM5A, KDM5B, KDM5C, and KDM5D activity, magnetic beads were used to immunoprecipitate the respective enzymes from 10^8 cells according to the manufacturer's instructions (Cell Signaling Technologies).

KDM5 = KDM5 demethylase inhibition, whole-cell nuclear extraction; type: biochemical; settings: micromolar concentrations
Excerpt: (§3) HMT and HDM are two major classes of enzymes, contributing to the regulation of histone methylation. Lysine-specific demethylase 1 (LSD1) and histone lysine demethylase 5 (KDM5, also known as JARID1) majorly catalyze demethylation of H3K4. A few KDM5 chemical inhibitors have been reported to inhibit demethylation of H3K4, leading to an increase of global methylated H3K4 in various cell types. The inventors tested the inhibitory effect of O4I3 on LSD1 and KDM5. KDM4 (also known as JMJD2), the HDM of H3K9 and H3K36, was also included.
as §2

KDM4 = tested on: T1, KDM4; assay: KDM4 (JMJD2) demethylase inhibition, nuclear extraction; type: biochemical; settings: micromolar concentrations
T1 construct: other: whole-cell nuclear extraction; other: micromolar concentrations
Excerpt: as §3, §2

Oct4 [6] = assay: Luciferase reporter assay in NCCIT-Oct4 cells; type: cell-based, human; settings: 10 μM, 48 h

CCOC(=O)c1csc(Nc2ccc(Cl)cc2)n1 [O4I2]
metabolic conversion in cells [1]: occurrence of ester-to-acid conversion

Cc1cccc(Nc2nc(C(C)(C)C)cs2)c1C [O4I4]
activity in three luciferase reporter cell lines (OCT4-promoter): among the most active compounds
expression of NANOG, increase as compared to 0.1% DMSO treatment [2]: 30 fold
expression of OCT4, increase as compared to 0.1% DMSO treatment [2]: 3 fold
survival ratio under oxidative stress (C. elegans [3]): increased survival ratio
lifespan (C. elegans [4]): life extension
localization of daf-16 (daf-16): nucleic translocation
OCT4 protein (Oct4 [5]): dose-dependent increase

Cc1ccc(-c2nc3ccc(C)cn3c2CC(=O)N(C)C)cc1 [zolpidem, N,N-dimethyl-2-(6-methyl-2-p-tolylimidazo[1,2-a]pyridin-3-yl)acetamid, reference compound]
induction in NCCIT-Nanog reporter cells (Nanog): ~2 fold
maintenance of iPSCs (hiPSCs): sustained the maintenance of iPSCs
reprogramming of resistant fibroblasts (human fibroblasts): facilitated the reprogramming of resistant fibroblasts
protection of H3K4 methylation (methylated H3K4): protected H3K4 methylation
inhibition of KDM5 (KDM5): inhibited
inhibition of KDM4 (KDM4): inhibited
induction in NCCIT-Oct4 reporter cells (Oct4 [6]): ~2 fold

Source: patent publication US20200062719A1, “Application of Imidazopyridine Derivatives in Regenerative Medicine” (University of Heidelberg, priority 2018, published 2020)
